# Reference: patent publication US9931313B2, “Methods of treating proliferative disorders with malate or derivatives thereof” (Beth Israel Deaconess Medical Center, Inc., priority 2012, dated 2018)
# Assays:
# A549 xenograft tumors = test: A549 xenograft in nude mice treated with DMM, cisplatin or both; type: in vivo, athymic nude mice
# Method: Approximately 5×10^6 control pLKO cells were subcutaneously implanted into female athymic nude mice. Mice were treated with DMM, cisplatin (CP), a combination of cisplatin with DMM (CP+DMM), or control (PBS), as described herein. Tumor size was measured and calculated. B: Direct injection of DMM into xenograft tumors caused shrinkage and ulceration of tumors, as compared to control with PBS.
# Animal experiments were performed under federal guidelines and approved by the Institutional Animal Care and Use Committee (IACUC) of the Beth Israel Deaconess Medical Center (Approval number 0342007). A549 xenografts in nude mice were generated by following the description of Verrax et al., in Biochem. Pharmacol. 72: 671-680 (2006). Briefly, approximately 10^7 ME2 deficient or control A549 cells resuspended in 200 μl of a serum-free culture medium/Matrigel mixture (1:1) were subcutaneously injected into the right and left flanks of male nude/nu/nu athymic mice, respectively. Tumor-bearing mice were sacrificed after 6-8 weeks and tumor masses were measured or imaged before excision. Tumor lysates were prepared by homogenization of tumor tissues in RIPA lysis buffer and were resolved by SDS-PAGE and transferred onto PDVF membranes and immunoblotted with anti-ME2 antibody and normalized by β-tubulin as a loading control.
# A549 cells [1] = test: Mitochondrial superoxide by MitoSOX Red in A549 cells; type: cell-based, human
# Method: (§1) Intracellular ROS production was measured by staining with CM-H2DCFDA. CM-H2DCFDA is a cell-permeant indicator for ROS that is nonfluorescent until removal of the acetate groups by intracellular esterases and oxidation occurs within the cell. The procedure for measuring ROS was carried out as described in Trachootham et al., in Cancer Cell. 10: 241-252 (2006), with minor modifications. Briefly, A549 cells transduced with shRNA lentiviral particles or control vector were selected with puromycin for 2 weeks, and then incubated with 5 μM CM-H2DCF-DA for 3 hours, followed by flow cytometry using a FACSCalibur equipped with CellQuest Pro software. Superoxide radicals (O2^−) were measured separately using the MitoSOX™ reagent according to the manufacturer's protocol (Invitrogen). In brief, cells with or without ME2 knockdown were incubated with 5 μM MitoSOX™ reagent for 10 minutes at 37° C., then washed three times and observed under a fluorescence microscope using the Rhodamine filter and Axiovision software for capturing images (Zeiss, Germany).
# We measured the ROS source using MitoSOX™ Red, a reagent that selectively targeted to the mitochondria.
# [2] = tested on: normal human derived fibroblast (NHDF) and normal lung epithelial cells; test: Cell death by Annexin V in normal cells; type: cell-based
# Method: (§2) A: Treatment with DMM induced ROS production in both normal human derived fibroblast (NHDF) and normal lung epithelial cells (Normal lung). ROS was detected by flow cytometry using indicator CM-H2DCFDA. Data are provided for the following curves (from left to right): 0, 5 mM, 10 mM, or 20 mM DMM. […] Cell death was analyzed by Annexin V reagent. Each histogram is representative of three experiments
# (§3) Apoptosis was measured by staining with the Nexin reagent using a Nexin kit and counting on the Guava PCA-96 system (Guava Technologies) as per the manufacture's protocol. Briefly, cells were harvested and re-suspended in 100 μl of 1× Nexin buffer, and then mixed with 100 μl of Annexin-V-PE, and Nexin 7-AAD. The cells were allowed to incubate for 20 minutes at room temperature and analyzed in the Guava flow cytometer.
# Akt and PDK1 = test: Western blotting of Akt/PDK1 phosphorylation and differentiation marker in A549 cells; type: cell-based, human; details: for DMM-induced differentiation / basal Akt activity in DMM-treated A549 cells: DMM in combination with NAC or GSH; for basal Akt activity in DMM-treated A549 cells: p-AKT473
# Method: A549 cells with and without ME2 knockdown were lysed with RIPA buffer (50 mM Tris-HCl, pH 7.4, 150 mM NaCl, 1% NP-40, 0.1% SDS and 0.5% sodium deoxycholate), and equal amount of proteins were resolved by 4%-12% Bis-Tris gels (Invitrogen), as previously described in Ren et al., Proc. Natl Acad. Sci. USA 104: 10465-10469 (2007). Briefly, the proteins were transferred to a PVDF membrane, and membranes were blocked with BLOTTO (5% nonfat dry milk and 0.1% Tween 20 in PBS), and incubated with antisera generated against ME2, phospho-AKT380, phosphor-473, AKT1/2, phosphor-ERK1/2, ERK1, vimentin, GATA-1 or β-tubulin antibodies, respectively. Membranes were washed in PBS plus 0.1% Tween 20 and probed with anti-rabbit or anti-mouse HRP-conjugated secondary antibody (both at 1:10,000 dilution), and proteins were detected using the ECL Plus chemiluminescence detection reagent (Amersham Biosciences).
# [3] = tested on: normal human derived fibroblast (NHDF) and normal lung epithelial cells; test: ROS by CM-H2DCFDA in normal cells; type: cell-based; details: 5, 10, 20 mM DMM
# Method: as §2
# as §1, with “Briefly, A549 cells transduced with shRNA lentiviral particles or control vector were selected with puromycin for 2 weeks, and then incubated with 5 μM CM-H2DCF-DA for 3 hours, followed by flow cytometry using a FACSCalibur equipped with CellQuest Pro software.” left out
# A549 cells [4] = test: Annexin-V apoptosis / cell death assay in A549 cells; type: cell-based, human; details: for DMM-induced cell death: DMM with NAC or GSH
# Method: as §3
# ME2-C = biological target: T1, ME2-C (Homo sapiens, UniProt P23368); test: In vitro activity of modified ME2 (ME2-C), absorbance at 340 nm; type: biochemical; details: 5, 15 and 45 mM DMM; 15 mM L-malate, 1 mM NAD+, 60 nM ME2-C, 37° C.
# T1 construct: His tag (C); FLAG tag (cleavable) (C); made in house; host or cells: E. coli BL21(DE3)
# Method: Modified ME2 is a recombinant ME2 protein having a C-terminus His tag and lacking the mitochondrial targeting sequence (ME2-C) was prepared, as described in Loeber et al., J. Biol. Chem. 266:3016-3021 (1991). The 200 μl assay mixture contained 30 mM of Tris-HCl (pH 7.4), 15 mM of L-malate (pH 7.4), 1 mM of NAD^+, 2 mM of MnCl2, and 60 nM of ME2-C. Different concentrations of DMM (pH 7.4) were tested, namely 5, 15 and 45 mM. The absorbance of the solution at 340 nm was monitored continuously with a Beckman Coulter DTX 880 multimode spectrophotometer at 37° C.
# To further determine compounds that can be used to inhibit ME2 and/or increase intracellular malate, or a derivative thereof, an ME2 assay was established. Accordingly, a modified ME2 protein was constructed using a human ME2 expression vector and a bacterial expression system (E. coli BL21(DE3)) with a cleavable FLAG tag. Both N- and C-terminal constructs were assessed for protein production, and the mitochondrial targeting sequence was deleted in the constructs, as described in Loeber et al., J. Biol. Chem. 266:3016-3021 (1991), which is incorporated herein by reference. Kinetic experiments were performed with C-terminal tagged ME2 (ME2-C) and with an assay mixture containing 30 mM of Tris-HCl (pH 7.4), 15 mM of L-malate (pH 7.4), 1 mM of NAD+, 2 mM of MnCl2, and 60 nM of ME2-C. […]
# A549 cells [5] = test: Cellular ROS by CM-H2DCFDA flow cytometry in A549 cells; type: cell-based, human; details: for DMM-induced ROS production: 10 or 20 mM DMM with 20 mM NAC or 20 mM GSH
# Method: as §1
# A549 cells [6] = test: Proliferation assay of A549 cells treated with DMM; type: cell-based, human
# Method: Control and ME2 deficient cell lines were plated in 6-well plate at a density of 1×10^5 cells/well and maintained at 37° C. in a 5% CO2 incubator. After 24, 72, 120 and 168 hours of initial plating, 0.5 ml cells were diluted into 10 ml of Hanks' buffer and counted by Coulter counter. All samples were assayed in triplicate to generate proliferation curves, as described in Benson et al., Nature 441: 451-456 (2006). For the clonogenic assay, A549 with stably expression ME2 knockdown and control shRNA cells were seeded in a 6-well plate at a density of 200 cells per well. Colonies were fixed with 10% formaldehyde for 5 min and stained with 0.5% crystal violet for 30 min and counted with NIH image software.
# To test whether malate accumulation may damage mitochondrial function and further inhibit cell growth, an exogenous form of malate was delivered in vitro. Exogenous malate may mimic the phenotype-induced by ME2 knockdown. Therefore, we supplemented exogenous cell-permeable malate (Heart et al., Am. J. Physiol. 296: E1354-1362 (2009)) in A549 cell growth media and compared the phenotype with ME2 knockdown cells. DMM, being cell permeable, was used as an exogenous substitute for malate.
# A549 cells [7] = test: Survival of A549 cells in Hams/F12 medium without glucose, pyruvate and glutamine; type: cell-based, human; details: control and ME2 knockdown A549 cells, medium without pyruvate, glutamine
# Method: A549 control or ME2 knockdown cells were grown in Hams/F12 based medium without glucose, pyruvate and glutamine. Different concentrations of glutamine were supplemented as indicated. The alive cells were stained with Nexin/7-ADD and analyzed by FACS. B: Exogenous supplementation of pyruvate can rescue ME2 depletion induced cell death. A549 control or ME2 knockdown cells were grown in Hams/F12 based medium without glucose, pyruvate and glutamine. Different concentrations of pyruvate were supplemented as indicated. The alive cells were stained with Nexin/7-ADD and analyzed by FACS. C and D: The effect of ME2 knockdown on de novo synthesis of PC is greater with ^13C6-Glc than with ^13C5, 1^5N2-Gln as tracer, as analyzed by FT-ICR-MS. E: Inhibition of ^13C3-citrate synthesis from ^13C6-Glc by ME2 knockdown, as determined by GC-MS. […] G and H: Effects of ME2 knockdown on the levels and fractional distribution of ^13C isotopologues of malate, as analyzed by GC-MS; rectangles depict ^13C2- (m2) and ^13C3-malate (m3) species as markers of the first turn of the Krebs cycle without and with pyruvate carboxylation input, respectively. […]
# [8] = direct intratumoral injection, vs PBS
# T1 sequence (P23368 19-584): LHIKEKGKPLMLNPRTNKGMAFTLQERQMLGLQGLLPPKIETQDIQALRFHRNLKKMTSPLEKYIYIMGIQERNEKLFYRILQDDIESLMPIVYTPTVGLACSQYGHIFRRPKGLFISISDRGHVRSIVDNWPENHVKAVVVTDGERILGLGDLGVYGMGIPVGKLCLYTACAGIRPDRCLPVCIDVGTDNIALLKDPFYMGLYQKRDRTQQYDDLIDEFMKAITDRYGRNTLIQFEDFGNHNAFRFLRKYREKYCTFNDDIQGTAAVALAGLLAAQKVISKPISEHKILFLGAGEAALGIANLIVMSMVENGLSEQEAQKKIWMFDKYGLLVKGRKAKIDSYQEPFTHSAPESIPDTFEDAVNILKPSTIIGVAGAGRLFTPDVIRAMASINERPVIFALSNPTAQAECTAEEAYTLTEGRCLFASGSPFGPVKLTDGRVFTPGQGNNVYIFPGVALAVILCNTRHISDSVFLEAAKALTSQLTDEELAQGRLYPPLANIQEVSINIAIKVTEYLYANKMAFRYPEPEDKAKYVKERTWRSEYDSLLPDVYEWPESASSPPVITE
smiles,measurement,setting,value
"COC(=O)CC(O)C(=O)OC (centres unmarked) [DMM, dimethyl malate]",A549 tumor growth in vivo,A549 xenograft tumors; 0.5 g/kg of DMM,significantly inhibited
same,tumor size after direct injection into A549 xenograft tumors,A549 xenograft tumors; [8],decreases in tumor size
same,tumor tissue appearance after direct injection into A549 xenograft tumors,A549 xenograft tumors; [8],ulceration of the tumor tissue
same,superoxide (MitoSOX Red),A549 cells [1]; 20 mM DMM for four days,increased presence of superoxide
same,cell death in normal cell lines,[2],not in the normal cell lines
same,E-cadherin expression,Akt and PDK1; A549 cells in vitro,increased
same,basal Akt and PDK1 activity,"Akt and PDK1; A549 cells in vitro, p-AKT473 and p-PDK1",inhibited
same,ROS production in normal cell lines,[3],enhanced ROS production
same,mode of cell death induced by DMM (annexin V assay),A549 cells [4]; A549 cells,induced necrosis in A549 cells rather than apoptosis
same,cell death in A549 cancer cell,A549 cells [4]; compared with normal cell lines,selectively induced cell death
same,activity of ME2-C,ME2-C,decreased the activity
same,time course of DMM-induced ROS production,A549 cells [5]; 3 h to 3 days,time-dependent
same,ROS production (CM-H2DCFDA),"A549 cells [5]; A549 cells, exogenous DMM 5, 10, 20 mM",enhanced production of ROS
same,proliferation of A549 cells,"A549 cells [6]; 10 and 20 mM DMM, control (pLKO) and ME2 knockdown (shME2-3) A549 cells",significantly inhibited
same,sensitivity of ME2 knockdown cells to DMM treatment compared to control cancer cells,A549 cells [6]; shME2-3 vs pLKO A549 cells,more sensitive
"CC(=O)N[C@@H](CS)C(=O)O [NAC, N-acetyl-cysteine]",superoxide production in DMM-treated cells,A549 cells [1]; DMM together with 20 mM NAC,decreased levels of superoxide production
same,DMM-induced differentiation,Akt and PDK1,reversed the DMM-induced differentiation
same,basal Akt activity in DMM-treated A549 cells,Akt and PDK1,rescued basal Akt activity
same,DMM-induced cell death,A549 cells [4],almost completely inhibited
same,"cell death induced by ME2 knockdown, rescue by antioxidant",A549 cells [4]; ME2 depleted cells,failed to rescue
same,DMM-induced ROS production,A549 cells [5],inhibited
"N[C@@H](CCC(=O)N[C@@H](CS)C(=O)NCC(=O)O)C(=O)O [GSH, reduced glutathione]",DMM-induced differentiation,Akt and PDK1,reversed the DMM-induced differentiation
same,basal Akt activity in DMM-treated A549 cells,Akt and PDK1,rescued basal Akt activity
same,DMM-induced cell death,A549 cells [4],almost completely inhibited
same,DMM-induced ROS production,A549 cells [5],inhibited
NC(=O)CC[C@H](N)C(=O)O [glutamine],rescue of cell survival by supplementation,A549 cells [7],rescued control cells more than ME2 knockdown cells
